Laboratory results published in patent publication US9642851B2, “Indolinone derivative as tyrosine kinase inhibitor” (KBP Biosciences Co., Ltd., priority 2012, dated 2017).
Structures can show the parent of a compound that is named as a salt.

test system: HUVEC cells; assay: In vitro cellular inhibitory activity, h-VEGF-A stimulated HUVEC proliferation; type: cell-based; details: Homo sapiens, h-VEGF-A 10 ng/ml, incubated for 89 hours, absorbance at 490 nm, read-out: ED50 for the HUVEC in vitro cells
Experimental: (1) Thawing cells and Passing cells.
The 3T3 cells were resuspended in a culture medium containing 10% fetal bovine serum, wherein the cell concentration was 5×10^4/ml. The cell suspension was added to a 96-well plate with 100 μL per well, and incubated overnight; the HUVEC cells were resuspended in a culture medium containing 10% heat-inactivated fetal bovine serum, wherein the cell concentration was 7.5×10^4/ml. The cell suspension was added to a 96-well plate with 100 μL per well. • (3) Treating with drugs: the compounds were diluted to different concentrations, and 60 μLh-PDGF-BB (3T3 cells) and 40 ng/ml h-VEGF-A (HUVEC cells) were added and incubated for 1 hour. • (4) 100 μL of a solution containing the compound and h-PDGF-BB (h-VEGF-A, for the HUVEC cells) was added to a cell culture plate, wherein the final concentration of h-PDGF-BB was 10 ng/ml, the final concentration of h-VEGF-A was 10 ng/ml, and the final concentration for the compounds were 10, 3.3333, 1.1111, 0.3704, 0.1235, 0.0412, 0.0137, 0.0046, and 0.0015 μM. The plate was incubated for 40 hours, and the HUVEC cells were incubated for 89 hours. To each well was added 20 μL Promega Substrate, and the plate was incubated at 37° C. for 7.5 hours, and the HUVEC cells were incubated for 11.5 hours. Then the plate was placed in a microplate reader to read the absorbance at 490 nm. • (5) Data processing
The curve of the compound concentration vs. Net OD was plotted, wherein Net OD=Compound OD−min. OD. ED50 was calculated according to the following equation: Conc. ED50(x)=(y−b)/a, y=Calculated Net OD for IC50, a=slope, b=intercept.

Row | Structure (SMILES) | EC50
1 | CCOC(=O)c1ccc2c(c1)NC(=O)/C2=C(\Nc1ccc2c(c1)CCN2C(=O)CN1CCN(C)CC1)c1ccccc1 [Compound 4] | 120 to 170 nM
2 | COC(=O)c1ccc2c(c1)NC(=O)/C2=C(\Nc1ccc2c(c1)CCN2C(=O)CCC(=O)N(C)C)c1ccccc1 [Compound 6 hydrochloride] | 190 to 280 nM
3 | COC(=O)c1ccc2c(c1)NC(=O)/C2=C(\Nc1ccc2c(c1)CCN2C(=O)CN1CCOCC1)c1ccccc1 [Compound 7] | 70 to 100 nM
4 | COC(=O)c1ccc2c(c1)NC(=O)/C2=C(\Nc1ccc2c(c1)CCN2C(=O)CN1CCC(O)CC1)c1ccccc1 [Compound 8] | 70 to 100 nM
5 | COC(=O)c1ccc2c(c1)NC(=O)/C2=C(\Nc1ccc2c(c1)CCN2C(=O)CN1CC(C)OC(C)C1)c1ccccc1 (stereo not shown) [Compound 11 hydrochloride, methyl(Z)-3-((1-(2-(2,6-dimethylmorpholine)acetyl)indolin-5-ylamino)(phenyl)methylene)-2-oxoindoline-6-carboxylate] | 50 to 80 nM

molecular target: hERG potassium channel (Homo sapiens, UniProt Q12809); assay: Inhibitory effect on hERG potassium channel with the patch clamp method; details: not given
Sequence (Q12809 whole entry): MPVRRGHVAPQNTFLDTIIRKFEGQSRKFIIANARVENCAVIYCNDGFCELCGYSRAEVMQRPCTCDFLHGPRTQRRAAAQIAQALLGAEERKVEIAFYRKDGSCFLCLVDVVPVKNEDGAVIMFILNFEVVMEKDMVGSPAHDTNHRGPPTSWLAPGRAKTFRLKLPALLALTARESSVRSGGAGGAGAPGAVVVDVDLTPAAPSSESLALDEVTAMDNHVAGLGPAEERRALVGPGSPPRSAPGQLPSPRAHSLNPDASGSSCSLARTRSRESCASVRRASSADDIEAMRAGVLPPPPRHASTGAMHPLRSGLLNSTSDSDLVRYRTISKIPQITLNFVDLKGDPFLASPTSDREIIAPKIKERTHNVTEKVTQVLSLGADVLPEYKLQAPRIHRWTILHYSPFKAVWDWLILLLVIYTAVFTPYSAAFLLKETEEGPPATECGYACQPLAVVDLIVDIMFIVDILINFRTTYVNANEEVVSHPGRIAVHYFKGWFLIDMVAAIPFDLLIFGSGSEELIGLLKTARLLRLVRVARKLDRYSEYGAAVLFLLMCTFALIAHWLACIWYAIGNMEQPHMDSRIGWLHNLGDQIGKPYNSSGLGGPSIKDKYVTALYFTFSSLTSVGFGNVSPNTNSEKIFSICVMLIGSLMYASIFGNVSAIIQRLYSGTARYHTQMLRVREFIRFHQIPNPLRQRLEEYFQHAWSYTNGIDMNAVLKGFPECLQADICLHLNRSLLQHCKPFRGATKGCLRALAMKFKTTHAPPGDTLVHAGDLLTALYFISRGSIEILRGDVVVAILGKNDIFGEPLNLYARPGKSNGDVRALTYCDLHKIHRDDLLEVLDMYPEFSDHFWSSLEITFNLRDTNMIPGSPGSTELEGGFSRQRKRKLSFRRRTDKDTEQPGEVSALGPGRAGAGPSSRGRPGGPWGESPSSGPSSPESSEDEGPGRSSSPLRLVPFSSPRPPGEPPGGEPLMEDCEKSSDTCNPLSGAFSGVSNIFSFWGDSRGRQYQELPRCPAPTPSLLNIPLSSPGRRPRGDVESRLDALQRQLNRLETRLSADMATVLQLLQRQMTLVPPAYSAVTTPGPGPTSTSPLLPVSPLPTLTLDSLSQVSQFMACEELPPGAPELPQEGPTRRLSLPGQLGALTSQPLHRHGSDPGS
Experimental: 1. Preparations of the Solutions and the Compounds
Extracellular fluid (mM): N-2-hydroxyethylpiperazine-N′-2-ethanesulfonic acid (HEPES) 10, NaCl 145, KCl 4, CaCl2 2, MgCl2 1, Glucose 10, adjusted with 1N sodium hydroxide to pH=7.4; the osmotic pressure was adjusted to 290-300 mOsm; filtered and preserved at 4° C.
Intracellular solution (mM): KCl 120, KOH 31.25, CaCl2 5.374, MgCl2 1.75, Ethylene glycol-bis(β-aminoethyl ether)-N,N,N′,N′-tetraacetic acid (EGTA) 10, HEPES 10, Na2-ATP 4, adjusted with 1N potassium hydroxide to pH=7.2; the osmotic pressure was adjusted to 280-290 mOsm; filtered and preserved at −20° C.
Before the experiments, the above stock solutions were diluted with DMSO to the levels that were 333 or 1000 times higher than the experiment concentrations, and then diluted by 333 or 1000 folds with the extracellular fluid to the desired concentrations. The final concentration of DMSO in the extracellular fluid was 0.3% or 0.1%.
2. Electrophysiological experiment. The hERG current was recorded with whole cell patch clamp technique. A cell suspension was added to a 35 mm petri dish, and placed on the object stage of an inverted microscope. After the adherence of cells, the perfusion with the extracellular fluid was done in a perfusion rate of 1-2 ml/min. […] After establishing a whole-cell record, the holding potential was kept at −80 mV. In the voltage stimulation, the depolarization was made at the potential of +60 mV. Then, the repolarization was made at the potential of −50 mV and the hERG tail current was recorded. All of the recordings were conducted after the currents became stable. The extracellular perfusion administration started from the lower concentration, and the administration at each concentration was conducted for 5-10 mines until the current became stable and then the administration at the next concentration was conducted. 3. The Experiment Included the Following Aspects:
The hERG current was recoded on the CHO-K1 cell line stably expressing the hERG channel with the manual patch clamp technology; the inhibition ratio at each concentration was calculated according to the hERG tail current; each of the compounds was measured at five concentrations to deduce the IC50 value; two cells were measured at each concentration; and one positive control drug was used.
4. Data Collection and Processing
The stimulation and the signal collection were accomplished through A/D-D/A digital-analog conversions with Digidata 1440 (Molecular Devices) and pCLAMP software (Version 10.2, Molecular Devices); the signal was amplified with a patch clamp amplifier (Multiclamp 700B, Molecular Devices), and filtered at 1 KHz. The data were further analyzed and subjected to the curve fitting with Clampfit (Version 10.2, Molecular Devices) and Prism. The data were expressed as mean value±standard deviation. The IC50 value was obtained by the fitting based on the Logistic equation:
[formula] • y: the inhibitory percent; max: 100%; min: 0%; [drug]: the concentration of the tested substance; nH: the slope rate; IC50: the half maximal inhibitory concentration of the tested substance.

Row | Structure (SMILES) | IC50
6 | COC(=O)c1ccc2c(c1)NC(=O)/C2=C(\Nc1ccc2c(c1)CCN2C(=O)CN1CCOCC1)c1ccccc1 [Compound 7] | > 30000 nM
7 | COC(=O)c1ccc2c(c1)NC(=O)/C2=C(\Nc1ccc2c(c1)CCN2C(=O)CN1CCOCC1)c1ccc(F)cc1 [Compound 9, methyl(Z)-3-((4-fluorophenyl)(1-(2-morpholinylacetyl)indolin-5-ylamino)methylene)-2-oxoindoline-6-carboxylate] | > 30000 nM
8 | CCOC(=O)c1ccc2c(c1)NC(=O)/C2=C(\Nc1ccc2c(c1)CCN2C(=O)CN1CCOCC1)c1ccccc1 [Compound 10, ethyl(Z)-3-((1-(2-morpholinylacetyl)indolin-5-ylamino)(phenyl)methylene)-2-oxoindoline-6-carboxylate] | > 30000 nM
9 | COC(=O)c1ccc2c(c1)NC(=O)/C2=C(\Nc1ccc2c(c1)CCN2C(=O)CN1CC(C)OC(C)C1)c1ccccc1 (stereo not shown) [Compound 11, methyl(Z)-3-((1-(2-(2,6-dimethylmorpholine)acetyl)indolin-5-ylamino)(phenyl)methylene)-2-oxoindoline-6-carboxylate] | > 30000 nM
10 | COC(=O)c1ccc2c(c1)NC(=O)/C2=C(\Nc1ccc2c(c1)CCN2C(=O)CN1CCCC1=O)c1ccccc1 [Compound 12, methyl(Z)-3-((1-(2-(2-pyrrolidon-1-yl)acetyl)indolin-5-ylamino)(phenyl)methylene)-2-oxoindoline-6-carboxylate] | > 30000 nM
11 | COC(=O)c1ccc2c(c1)NC(=O)/C2=C(\Nc1ccc2c(c1)CCN2C(=O)Cn1cncn1)c1ccccc1 [Compound 13, methyl(Z)-3-((1-(2-(1H-1,2,4-triazol-1-yl)acetyl)indolin-5-ylamino)(phenyl)methylene)-2-oxoindoline-6-carboxylate] | > 30000 nM
12 | COC(=O)c1ccc2c(c1)NC(=O)/C2=C(\Nc1ccc2c(c1)CCN2C(=O)Cn1cccn1)c1ccccc1 [Compound 14, methyl(Z)-3-((1-(2-(1H-pyrazol-1-yl)acetyl)indolin-5-ylamino)(phenyl)methylene)-2-oxoindoline-6-carboxylate] | > 30000 nM
13 | COC(=O)c1ccc2c(c1)NC(=O)/C2=C(\Nc1ccc(N(C)C(=O)CN2CCN(C)CC2)cc1)c1ccccc1 [Intedanib (BIBF-1120), Intedanib, reference compound] | 4900 nM
